The target in assay [1] is T1, Poly [ADP-ribose] polymerase 1 (Homo sapiens, UniProt P09874). The following applies: 100 uM.
Description: Inhibition of PARP1 (unknown origin) at 100 uM
Assay [2] concerns the target T1, Poly [ADP-ribose] polymerase 1. Briefly: Inhibition of PARP1 (unknown origin).

T1 sequence (P09874 whole entry): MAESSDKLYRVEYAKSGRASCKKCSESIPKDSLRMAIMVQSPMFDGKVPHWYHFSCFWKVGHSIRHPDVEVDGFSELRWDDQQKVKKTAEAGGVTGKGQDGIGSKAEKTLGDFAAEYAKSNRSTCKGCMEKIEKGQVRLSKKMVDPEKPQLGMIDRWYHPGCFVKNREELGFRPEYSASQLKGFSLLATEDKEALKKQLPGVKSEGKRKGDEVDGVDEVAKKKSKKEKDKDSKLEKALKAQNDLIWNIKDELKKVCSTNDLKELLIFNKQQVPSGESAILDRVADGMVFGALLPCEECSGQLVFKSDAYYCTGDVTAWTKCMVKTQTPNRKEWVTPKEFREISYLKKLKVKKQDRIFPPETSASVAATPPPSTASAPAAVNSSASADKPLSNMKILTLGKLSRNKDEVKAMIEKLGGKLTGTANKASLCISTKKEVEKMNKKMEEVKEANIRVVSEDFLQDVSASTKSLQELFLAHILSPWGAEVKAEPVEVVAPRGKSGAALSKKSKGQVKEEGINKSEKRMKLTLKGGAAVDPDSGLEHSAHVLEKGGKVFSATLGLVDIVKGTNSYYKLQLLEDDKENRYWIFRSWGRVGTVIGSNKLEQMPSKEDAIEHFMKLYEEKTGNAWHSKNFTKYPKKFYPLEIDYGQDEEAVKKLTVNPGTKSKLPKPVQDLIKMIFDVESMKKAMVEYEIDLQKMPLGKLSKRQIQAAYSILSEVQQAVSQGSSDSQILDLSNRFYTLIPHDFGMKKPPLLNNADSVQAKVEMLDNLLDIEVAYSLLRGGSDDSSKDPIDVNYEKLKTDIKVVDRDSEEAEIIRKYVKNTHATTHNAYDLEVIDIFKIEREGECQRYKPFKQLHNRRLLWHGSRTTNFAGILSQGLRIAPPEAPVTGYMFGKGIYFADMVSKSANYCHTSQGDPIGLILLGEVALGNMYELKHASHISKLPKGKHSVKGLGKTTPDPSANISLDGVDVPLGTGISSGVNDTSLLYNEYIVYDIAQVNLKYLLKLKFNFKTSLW

Consider `NC(=O)c1cccc(N)c1`, for which the inhibition in assay [1] came out at 100%.

`CCCN1CCCC(c2nc3c(C(N)=O)cncc3[nH]2)C1` (configuration not stated) registered an IC50 in assay [2] of 938 nM.

Take `CN1CCC(c2nc3c(C(N)=O)cncc3[nH]2)CC1`: inhibition in assay [2] was half-maximal at 1450 nM (IC50).

Compound `CC(C)N1CCCC(c2nc3c(C(N)=O)cncc3[nH]2)C1` (configuration not stated) displayed an IC50 in assay [2] of 651 nM.

With `CCCN1CCC(c2nc3c(C(N)=O)cncc3[nH]2)CC1`, in assay [2], the IC50 turned out to be 528 nM.

For `NC(=O)c1cncc2[nH]c(C3CCNCC3)nc12`, the IC50 in assay [2] amounted to 825 nM.

The compound `NC(=O)c1cncc2[nH]c(C3CCCNC3)nc12` (configuration not stated) displayed an IC50 in assay [2] of 636 nM.

By inhibition is commonly meant the drop in the measured response relative to a control, in per cent. The term IC50 denotes the concentration at which inhibition is half-maximal.

The record behind these values is ChEMBL document CHEMBL2346520, “Design, synthesis and biological evaluation of novel imidazo[4,5-c]pyridinecarboxamide derivatives as PARP-1 inhibitors” (Bioorg Med Chem Lett, 2013).
